Values quoted from earlier work, collected in PMC7395068, “The evolution of strategies to minimise the risk of human drug-induced liver injury (DILI) in drug discovery and development” (Archives of Toxicology, 2020).
Like-named read-outs stand apart in the source and are kept apart here.

How the values were obtained:
[1] = tested on: isolated mouse liver mitochondria; conditions: cited from earlier work
[2] = cited from earlier work
human hepatocytes = conditions: In vitro Assay; ref Xu 2008; cited from earlier work
[3] = tested on: THLE or HepG2 cells, isolated mitochondria, BSEP; conditions: In vitro Assay; ref Aleo 2019; cited from earlier work
[4] = ref Chen 2016; cited from earlier work
[5] = In vitro Assay, ref Porceddu 2012
[6] = isolated mouse liver mitochondria, EC20<=2uM, ref Porceddu 2012

SMILES	in vitro data EC2<=1x Cmax [1, 5]	in vitro data EC20<=2uM [1, 5]	In vivo DILI ([2]; ref Porceddu 2012)	other results
Nc1c(Br)cc(Br)cc1CN[C@H]1CC[C@H](O)CC1 [Ambroxol]	-VE	–	–	–
Cc1cc(=O)n(-c2ccccc2)n1C [Antipyrine]	+VE	-VE	–	In vivo DILI ([2]; in vivo): -VE
O=C(/C=C/c1ccc(O)c(O)c1)c1ccc(O)cc1O [Butein]	–	–	–	in vitro data EC20<=2uM [1, 6]: +VE
COc1cc(CNC(=O)CCCC/C=C/C(C)C)ccc1O [Capsaicin]	-VE	+VE	-VE	–
O=P(O)(O)C(Cl)(Cl)P(=O)(O)O [Clodronate]	-VE	-VE	-VE	–
COc1cc(/C=C/C(=O)CC(=O)/C=C/c2ccc(O)c(OC)c2)ccc1O [Curcumin]	-VE	–	–	–
Clc1ccc(COC(Cn2ccnc2)c2ccc(Cl)cc2Cl)cc1 (stereo not shown) [Econazole]	+VE	+VE	+VE	–
CCOC(=O)c1ccc(O)cc1 [Ethyl paraben]	–	–	–	in vitro data EC20<=2uM [1]: -VE
O=C(O)c1ccccc1Nc1cccc(C(F)(F)F)c1 [Flufenamic acid]	+VE	+VE	+VE	–
O=C(O)c1cc(O)c(O)c(O)c1 [Gallic acid]	+VE	–	–	–
Cc1cc2c(C(C)C)c(O)c(O)c(C=O)c2c(O)c1-c1c(C)cc2c(C(C)C)c(O)c(O)c(C=O)c2c1O [Gossypol]	–	+VE	+VE	–
O=C(O)c1nn(Cc2ccc(Cl)cc2Cl)c2ccccc12 [Lonidamine]	+VE	+VE	+VE	–
CCOC(=O)[N-]c1cn(N2CCOCC2)n[o+]1 [Molsidomine]	-VE	-VE	-VE	–
CO[C@]12C[C@@H](COC(=O)c3cncc(Br)c3)CN(C)[C@@H]1Cc1cn(C)c3cccc2c13 [Nicergoline]	-VE	+VE	-VE	–
Oc1cc(O)cc(O)c1 [Phloroglucinol]	–	–	–	in vitro data EC20<=2uM [1, 6]: -VE
Oc1ccc(/C=C/c2cc(O)cc(O)c2)cc1 [Resveratrol]	-VE	–	–	–
O=C1NS(=O)(=O)c2ccccc21 [Saccharin]	+VE	-VE	+VE	–
OC[C@H]1O[C@@](CO)(O[C@H]2O[C@H](CO)[C@@H](O)[C@H](O)[C@H]2O)[C@@H](O)[C@@H]1O [Sucrose]	–	–	–	in vitro data EC20<=2uM [1]: -VE
Cc1c(Cl)cccc1Nc1ccccc1C(=O)O [Tolfenamic acid]	+VE	+VE	+VE	–
Oc1ncnc2[nH]ncc12 [allopurinol]	–	–	–	Structural based (HCI) (human hepatocytes): +VE; In vivo DILI ([2]; […]): +VE; In vivo DILI ([2]; ref Aleo 2019): +VE; In vivo DILI ([2]; ref Xu 2008): +VE; Partition Hybrid HRM Score [3]: +VE; Ro2 Hybrid HRM Score [3]: -VE; DILI +VE (5-8), DILI -VE (-4) [4]: +VE; DILI severity category [4]: vMost-DILI-Concern
CC1(C)S[C@@H]2[C@H](NC(=O)[C@H](N)c3ccccc3)C(=O)N2[C@H]1C(=O)O [ampicillin]	+VE	–	–	–
